According to patent publication USRE40086E1, “Method for treating bacterial infection with novel 7-substituted-9-substituted amino 6-demethyl-6-deoxytetracyclines” (Wyeth Holdings Corporation, priority 1991, dated 2008):
Where a name gives a salt, the structure may show the parent alone.

Experiments:
Enterococcus faecalis = assay: MIC against clinical isolates (Table V, A and O); type: cell-based; conditions: Enterococcus faecalis clinical isolates, (14) tested
[1] = tested on: E. coli UBMS 88-2 (Sensitive); assay: MIC, agar dilution; type: cell-based; conditions: Escherichia coli; E. coli UBMS 88-2 (Sensitive); read-out: MIC
Neisseria gonorrhoeae = assay: MIC against clinical isolates (Table V, A and O); type: cell-based; conditions: Neisseria gonorrhoeae clinical isolates, (9) tested
Escherichia coli = assay: MIC against clinical isolates (Table V, A and O); type: cell-based; conditions: Escherichia coli clinical isolates, (10) tested
[2] = tested on: N. gonorrhoeae 6418 (tetM); assay: MIC, agar dilution; type: cell-based; conditions: Neisseria gonorrhoeae
[3] = tested on: Escherichia coli UBMS 90-4 (Tet-M); assay: In vivo antibacterial evaluation, acute lethal infection in mice
[4] = tested on: S. aureus UBMS 90-3 (Sensitive); assay: MIC, agar dilution; type: cell-based
[5] = tested on: Enterococcus spp. Vancomycin-resistant; assay: MIC vs recent clinical and agricultural isolates (Table V, KK); type: cell-based; conditions: [8] tested
E. coli UBMS 88-1 (tetB) = assay: MIC, agar dilution; type: cell-based; conditions: for MIC: E. coli UBMS 88-1 (tetB)
E. coli UBMS 90-4 (tetM) = assay: MIC, agar dilution; type: cell-based
Klebsiella pneumoniae = assay: MIC against clinical isolates (Table V, A and O); type: cell-based; conditions: Klebsiella pneumoniae clinical isolates, (10) tested
Bacteroides spp. = assay: MIC against clinical isolates (Table V, A and O); type: cell-based; conditions: Bacteroides spp. clinical isolates, (15) tested
[6] = tested on: S. aureus UBMS 90-2 (tetM); assay: MIC, agar dilution; type: cell-based; conditions: for MIC: S. aureus UBMS 90-2 (tetM)
Proteus spp. indole+ = assay: MIC against clinical isolates (Table V, A and O); type: cell-based; conditions: Proteus spp. indole+ clinical isolates, (9) tested
[7] = tested on: E. faecalis UBMS 90-6 (tetM); assay: MIC, agar dilution; type: cell-based; conditions: Enterococcus faecalis
[8] = tested on: N. gonorrhoeae IL 611 (Sensitive); assay: MIC, agar dilution; type: cell-based; conditions: Neisseria gonorrhoeae; N. gonorrhoeae IL 611 (Sensitive); read-out: MIC
Enterococcus faecium = assay: MIC against clinical isolates (Table V, A and O); type: cell-based; conditions: Enterococcus faecium clinical isolates, (11) tested
[9] = tested on: E. faecalis UBMS 90-7 (tetM); assay: MIC, agar dilution; type: cell-based; conditions: Enterococcus faecalis
E. faecalis ATCC 29212 = assay: MIC, agar dilution; type: cell-based; conditions: E. faecalis ATCC 29212
[10] = tested on: Salmonella cholerasuis (Agricultural); assay: MIC vs recent clinical and agricultural isolates (Table V, KK); type: cell-based; conditions: [15] tested
[11] = tested on: TetM S30 extract, derivative of E. coli MRE600 containing the tetM determinant; assay: E. coli in vitro transcription and protein translation, 35S-methionine incorporation (Table VIII)
[12] = tested on: S. aureus IVES 1983 (meth. resistant); assay: MIC, agar dilution; type: cell-based; conditions: S. aureus IVES 1983; Table IA; unit assumed
E. coli J3272 Tet sens. = assay: MIC, agar dilution (Table IA); type: cell-based; conditions: unit assumed
E. coli UBMS 90-5 = assay: MIC, agar dilution (Table IA); type: cell-based; conditions: unit assumed
Providencia spp. = assay: MIC vs recent clinical and agricultural isolates (Table V, KK); type: cell-based; conditions: [13] tested
[13] = tested on: S. aureus IVES 2943 (meth. resistant); assay: MIC, agar dilution; type: cell-based; conditions: S. aureus IVES 2943; Table IA; unit assumed
[14] = tested on: X. maltophilia NEMC 87210; assay: MIC, agar dilution (Table IA); type: cell-based; conditions: unit assumed
E. coli J3272 TetC = assay: MIC, agar dilution (Table IA); type: cell-based; conditions: unit assumed
[15] = tested on: Salmonella spp. (Clinical); type: cell-based; conditions: [11] tested
S. aureus SMITH (sens) = assay: In vivo antibacterial evaluation, acute lethal infection in mice; conditions: Intraveneous
Clostridium spp. = type: cell-based; conditions: [9] tested
[16] = tested on: Ps. acruginosa ATCC 27853; assay: MIC, agar dilution (Table IA); type: cell-based; conditions: unit assumed
E. coli BAJ9003 = assay: MIC, agar dilution (Table IA); type: cell-based; conditions: unit assumed
S. aureus NEMC 8769/89-4 = assay: MIC, agar dilution (Table IA); type: cell-based; conditions: unit assumed
E. coli J3272 TetD = assay: MIC, agar dilution (Table IA); type: cell-based; conditions: unit assumed
E. coli MC4100 TetB = assay: MIC, agar dilution (Table IA); type: cell-based; conditions: unit assumed
S. aureus ROSE (MP) = assay: MIC, agar dilution (Table IA); type: cell-based; conditions: unit assumed
S. mariescens FDOR 8733 = assay: MIC, agar dilution (Table IA); type: cell-based; conditions: unit assumed

CN(C)c1ccc(O)c2c1C[C@H]1C[C@H]3[C@H](N(C)C)C(O)=C(C(N)=O)C(=O)[C@@]3(O)C(O)=C1C2=O [Compound O, 7-(Dimethylamino)-6-demethyl-6-deoxytetracycline hydrochloride (minocycline hydrochloride), reference compound]
MIC Range (Enterococcus faecalis): <0.015 to 16.00 µg/mL | MIC50 (Enterococcus faecalis; read-out: MIC50): 4 µg/mL | MIC90 (Enterococcus faecalis; read-out: MIC90): 16 µg/mL | MIC [1]: 0.5 µg/mL | MIC50 (Neisseria gonorrhoeae; read-out: MIC50): 0.25 µg/mL | MIC90 (Neisseria gonorrhoeae; read-out: MIC90): > 32 µg/mL | MIC Range (Escherichia coli): 0.12 to 32.00 µg/mL | MIC50 (Escherichia coli; read-out: MIC50): 0.25 µg/mL | MIC90 (Escherichia coli; read-out: MIC90): 16 µg/mL | MIC [2]: > 32 µg/mL | ED50 ([3]; Escherichia coli, in Mus musculus, iv): > 32 mg/kg | MIC ([4]; Staphylococcus aureus, S. aureus UBMS 90-3 (Sensitive), read-out: MIC): ≤ 0.015 µg/mL | MIC (range over isolates) [5]: 0.03 to 16 µg/mL | MIC (E. coli UBMS 88-1 (tetB); hydrochloride): 16 µg/mL | MIC (E. coli UBMS 88-1 (tetB); Escherichia coli): 8 µg/mL | MIC (E. coli UBMS 90-4 (tetM); Escherichia coli): 64 µg/mL | MIC50 (Klebsiella pneumoniae; read-out: MIC50): 1 µg/mL | MIC90 (Klebsiella pneumoniae; read-out: MIC90): 4 µg/mL | MIC Range (Bacteroides spp.): >0.15 to 16.00 µg/mL | MIC50 (Bacteroides spp.; read-out: MIC50): 1 µg/mL | MIC90 (Bacteroides spp.; read-out: MIC90): 4 µg/mL | MIC ([6]; hydrochloride): 1 µg/mL | MIC ([6]; Staphylococcus aureus): 2 µg/mL | MIC50 (Proteus spp. indole+; read-out: MIC50): 16 µg/mL | MIC90 (Proteus spp. indole+; read-out: MIC90): > 32 µg/mL | MIC [7]: 8 µg/mL | MIC [8]: 0.5 µg/mL | MIC Range (Enterococcus faecium): <0.015 to 16.00 µg/mL | MIC50 (Enterococcus faecium; read-out: MIC50): 8 µg/mL | MIC90 (Enterococcus faecium; read-out: MIC90): 16 µg/mL | MIC [9]: 8 µg/mL | MIC (E. faecalis ATCC 29212; Enterococcus faecalis, ATCC29212, read-out: MIC): 0.5 µg/mL

CN(C)CC(=O)Nc1cc(N(C)C)c2c(c1O)C(=O)C1=C(O)[C@]3(O)C(=O)C(C(N)=O)=C(O)[C@@H](N(C)C)C3CC1C2.Cl.Cl (stereo partly drawn) [KK, [4S-(4alpha,12aalpha)]-4,7-Bis(dimethylamino)-9-[[(dimethylamino)acetyl]amino]-1,4,4a,5,5a,6,11,12a-octahydro-3,10,12,12a-tetrahydroxy-1,11-dioxo-2-naphthacenecarboxamide dihydrochloride]
MIC (range over isolates) [10]: 0.5 to 16 µg/mL | % INHIBITION TetM S30 ([11]; 0.03 mg/ml): 75% | % INHIBITION TetM S30 ([11]; 0.06 mg/ml): 89% | % INHIBITION TetM S30 ([11]; 0.5 mg/ml): 96% | % INHIBITION TetM S30 ([11]; 1.0 mg/ml): 95% | Antibacterial activity (MIC) [12]: 1 µg/mL | Antibacterial activity (MIC) (E. coli J3272 Tet sens.): 0.12 µg/mL | ED50 ([3]; mice, Escherichia coli UBMS 90-4 (Tet-M), Intraveneous): 2.49 mg/kg | Antibacterial activity (MIC) ([4]; S. aureus UBMS 90-3, Table IA, unit assumed): 0.03 µg/mL | Antibacterial activity (MIC) (E. coli UBMS 90-5): 0.25 µg/mL | MIC (range over isolates) (Providencia spp.): 2 to 8 µg/mL | MIC (range over isolates) [5]: 0.015 to 0.06 µg/mL | Antibacterial activity (MIC) [13]: 1 µg/mL | Antibacterial activity (MIC) (E. coli UBMS 88-1 (tetB); E. coli UBMS 88-1 TetB, Table IA, unit assumed): 0.25 µg/mL | Antibacterial activity (MIC) [14]: 0.25 µg/mL | Antibacterial activity (MIC) (E. coli UBMS 90-4 (tetM); E. coli UBMS 90-4 TetM, Table IA, unit assumed): 0.25 µg/mL | Antibacterial activity (MIC) (E. coli J3272 TetC): 1 µg/mL | MIC (range over isolates) [15]: 0.25 to 0.5 µg/mL | ED50 (S. aureus SMITH (sens)): 0.68 mg/kg | Antibacterial activity (MIC) ([6]; S. aureus UBMS 90-2 TetM, Table IA, unit assumed): 0.12 µg/mL | MIC (range over isolates) (Clostridium spp.): 0.015 to 0.12 µg/mL | Antibacterial activity (MIC) [16]: 4 µg/mL | Antibacterial activity (MIC) (E. coli BAJ9003): 0.03 µg/mL | Antibacterial activity (MIC) (S. aureus NEMC 8769/89-4): 0.06 µg/mL | Antibacterial activity (MIC) (E. coli J3272 TetD): 0.12 µg/mL | Antibacterial activity (MIC) (E. coli MC4100 TetB): 0.25 µg/mL | Antibacterial activity (MIC) (S. aureus ROSE (MP)): 1 µg/mL | Antibacterial activity (MIC) (S. mariescens FDOR 8733): 2 µg/mL | Antibacterial activity (MIC) (E. faecalis ATCC 29212; Table IA, unit assumed): 0.06 µg/mL
